Measured values taken from patent US20230146675A1, “PYRIMIDO[5,4-d]PYRIMIDINE DERIVATIVES AS ENT INHIBITORS FOR THE TREATMENT OF CANCERS, AND COMBINATION THEREOF WITH ADENOSINE RECEPTOR ANTAGONISTS” (ITEOS BELGIUM SA, priority 2020, published 2023).

These compounds were tested against T1, human ENT1 (Homo sapiens, UniProt Q99808) (assay: ENT1 binding assay (competition with Sahenta-DY647 on JAR cells)). Conditions: binned IC50.
T1 sequence (Q99808 1-456): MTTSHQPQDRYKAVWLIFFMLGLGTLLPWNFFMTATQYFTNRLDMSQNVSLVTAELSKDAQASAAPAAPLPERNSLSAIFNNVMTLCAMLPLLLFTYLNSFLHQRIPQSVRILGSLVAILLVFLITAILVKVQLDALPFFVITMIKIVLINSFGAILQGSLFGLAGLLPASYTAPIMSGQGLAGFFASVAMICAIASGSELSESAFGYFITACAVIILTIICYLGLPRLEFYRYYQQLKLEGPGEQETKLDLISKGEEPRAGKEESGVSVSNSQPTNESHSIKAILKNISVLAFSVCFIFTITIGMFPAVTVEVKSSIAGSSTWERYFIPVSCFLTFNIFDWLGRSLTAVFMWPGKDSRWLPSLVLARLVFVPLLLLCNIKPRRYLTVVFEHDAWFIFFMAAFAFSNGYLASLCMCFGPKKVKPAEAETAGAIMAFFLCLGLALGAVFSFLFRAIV
Set-up: JAR cells expressing ENT1 were bought from ATCC; host or cells: JAR cells
Method in brief: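 JAR cells were incubated with test compounds and the fluorescent ligand Sahenta-DY647 in competition. Plates were washed twice by centrifugation (4 min, 400 rcf, 4 °C). Binding potency was derived from the final fluorescence.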

COCCN(CCOC)c1nc(N2CCC(OC)CC2)c2nc(N(CCOC)CCOC)nc(N(C)C)c2n1 [Compound 67, N2,N2,N6,N6-tetrakis(2-methoxyethyl)-8-(4-methoxypiperidin-1-yl)-N4,N4-dimethylpyrimido[5,4-d]pyrimidine-2,4,6-triamine] was tested. Which IC50 did it give?
Its IC50 is 0.5 to 1 µM.

COCCN(CCOC)c1nc(N2CCC(OC)C2)c2nc(N(CCOC)CCOC)nc(N3CCC(OC)CC3)c2n1 (centres unmarked) [Compound 80, N2,N2,N6,N6-tetrakis(2-methoxyethyl)-4-(4-methoxypiperidin-1-yl)-8-(3-methoxypyrrolidin-1-yl)pyrimido[5,4-d]pyrimidine-2,6-diamine] was tested. Which IC50 did it give?
Its IC50 is 0.1 to 0.5 µM.

How did the IC50 turn out when COCCN(CCOC)c1nc(N2CCN(C)C(=O)C2)c2nc(N3CCN(c4ncccc4N)CC3)nc(N3CCC(OC)CC3)c2n1 [Compound 294, 4-(6-(4-(3-aminopyridin-2-yl)piperazin-1-yl)-2-(bis(2-methoxyethyl)amino)-8-(4-methoxypiperidin-1-yl)pyrimido[5,4-d]pyrimidin-4-yl)-1-methylpiperazin-2-one] was run?
Its IC50 is under 0.1 µM.

With COCCN(CCOC)c1nc(N2CC(O)(C(F)(F)F)C2)c2nc(N(CCOC)CCOC)nc(NCc3ccccc3)c2n1 [Compound 12, 1-(8-(benzylamino)-2,6-bis(bis(2-methoxyethyl)amino)pyrimido[5,4-d]pyrimidin-4-yl)-3-(trifluoromethyl)azetidin-3-ol] as the compound, how does the IC50 read?
The IC50 was under 0.1 µM.

For COCCN(CCOC)c1nc(N2CCN(c3ncn(C)n3)CC2)c2nc(N(CCOC)CCOC)nc(NCc3cccc(F)c3)c2n1 [Compound 220, N4-(3-fluorobenzyl)-N2,N2,N6,N6-tetrakis(2-methoxyethyl)-8-(4-(1-methyl-1H-1,2,4-triazol-3-yl)piperazin-1-yl)pyrimido[5,4-d]pyrimidine-2,4,6-triamine], which IC50 is on record?
The IC50 was under 0.1 µM.

How did the IC50 turn out when CCN(CCN1CCCCC1)c1nc(N2CCN(C)C(=O)C2)c2nc(N(CCOC)CCOC)nc(N3CCC(OC)CC3)c2n1 [Compound 272, 4-(6-(bis(2-methoxyethyl)amino)-2-(ethyl(2-(piperidin-1-yl)ethyl)amino)-8-(4-methoxypiperidin-1-yl)pyrimido[5,4-d]pyrimidin-4-yl)-1-methylpiperazin-2-one] was run?
Its IC50 is 0.1 to 0.5 µM.

With COCCN(CCOC)c1nc(N2CCC(OC)CC2)c2nc(N(CCOC)CCOC)nc(NCCc3cccnc3)c2n1 [Compound 63, N2,N2,N6,N6-tetrakis(2-methoxyethyl)-8-(4-methoxypiperidin-1-yl)-N4-(2-(pyridin-3-yl)ethyl)pyrimido[5,4-d]pyrimidine-2,4,6-triamine] as the compound, how does the IC50 read?
The IC50 was 0.1 to 0.5 µM.

For COCCN(CCOC)c1nc(N2CCC(OC)CC2)c2nc(N(CCOC)CCOC)nc(NCCCc3ccccn3)c2n1 [Compound 177, N2,N2,N6,N6-tetrakis(2-methoxyethyl)-8-(4-methoxypiperidin-1-yl)-N4-(3-(pyridin-2-yl)propyl)pyrimido[5,4-d]pyrimidine-2,4,6-triamine], which IC50 is on record?
The IC50 was 0.5 to 1 µM.

How did the IC50 turn out when COCCN(CCOC)c1nc(N2CCn3cncc3C2)c2nc(N(CCOC)CCOC)nc(N3CCN(C)C(=O)C3)c2n1 [Compound 250, 4-(2,6-bis(bis(2-methoxyethyl)amino)-8-(5,6-dihydroimidazo[1,5-a]pyrazin-7(8H)-yl)pyrimido[5,4-d]pyrimidin-4-yl)-1-methylpiperazin-2-one] was run?
The IC50 was 0.1 to 0.5 µM.

For COCCN(CCOC)c1nc(N2CCC(OC)CC2)c2nc(N(CCO)CCO)nc(N3CC(=O)N(C)C(=O)C3)c2n1 [Compound 307, 4-(2-(bis(2-hydroxyethyl)amino)-6-(bis(2-methoxyethyl)amino)-8-(4-methoxypiperidin-1-yl)pyrimido[5,4-d]pyrimidin-4-yl)-1-methylpiperazine-2,6-dione], which IC50 is on record?
Its IC50 is under 0.1 µM.

For COCCN(CCOC)c1nc(N2CC(OC)C2)c2nc(N(CCOC)CCOC)nc(N3CCC(OC)CC3)c2n1 [Compound 86, 4-(3-methoxyazetidin-1-yl)-N2,N2,N6,N6-tetrakis(2-methoxyethyl)-8-(4-methoxypiperidin-1-yl)pyrimido[5,4-d]pyrimidine-2,6-diamine], which IC50 is on record?
The IC50 was 0.1 to 0.5 µM.

COCCN(CCOC)c1nc(N2CCC(OC)CC2)c2nc(N(CCOC)CCOC)nc(NCCOc3ccccc3)c2n1 [Compound 56, N2,N2,N6,N6-tetrakis(2-methoxyethyl)-8-(4-methoxypiperidin-1-yl)-N4-(2-phenoxyethyl)pyrimido[5,4-d]pyrimidine-2,4,6-triamine] was tested. Which IC50 did it give?
The IC50 was 0.1 to 0.5 µM.

How did the IC50 turn out when COCCN(CCOC)c1nc(N2CC(=O)N(C)C(=O)C2)c2nc(N(CCO)CCO)nc(N3CCC(OC)CC3)c2n1 [Compound 308, 4-(6-(bis(2-hydroxyethyl)amino)-2-(bis(2-methoxyethyl)amino)-8-(4-methoxypiperidin-1-yl)pyrimido[5,4-d]pyrimidin-4-yl)-1-methylpiperazine-2,6-dione] was run?
The IC50 was under 0.1 µM.

How did the IC50 turn out when COCCN(CCOC)c1nc(N2CCC(OC)CC2)c2nc(N(CCOC)CCOC)nc(N3CCC(C#N)CC3)c2n1 [Compound 90, 1-(2,6-bis(bis(2-methoxyethyl)amino)-8-(4-methoxypiperidin-1-yl)pyrimido[5,4-d]pyrimidin-4-yl)piperidine-4-carbonitrile] was run?
The IC50 was 0.1 to 0.5 µM.

Which IC50 does the source give for COCCN(CCOC)c1nc(N2CCC(OC)CC2)c2nc(N(CCOC)CCOC)nc(NCc3cnn(C)c3)c2n1 [Compound 65, N2,N2,N6,N6-tetrakis(2-methoxyethyl)-8-(4-methoxypiperidin-1-yl)-N4-((1-methyl-1H-pyrazol-4-yl)methyl)pyrimido[5,4-d]pyrimidine-2,4,6-triamine] here?
Its IC50 is 0.5 to 1 µM.

How did the IC50 turn out when CCCNc1nc(N(CCOC)CCOC)nc2c(N3CCN(c4ncn(C)n4)CC3)nc(N(CCOC)CCOC)nc12 [Compound 218, N2,N2,N6,N6-tetrakis(2-methoxyethyl)-8-(4-(1-methyl-1H-1,2,4-triazol-3-yl)piperazin-1-yl)-N4-propylpyrimido[5,4-d]pyrimidine-2,4,6-triamine] was run?
The IC50 was 0.1 to 0.5 µM.

How did the IC50 turn out when COCCN(CCOC)c1nc(N2CCC(OC)CC2)c2nc(N(CCOC)CCOC)nc(OCc3ccc(Cl)c(Cl)c3)c2n1 [Compound 154, 4-((3,4-dichlorobenzyl)oxy)-N2,N2,N6,N6-tetrakis(2-methoxyethyl)-8-(4-methoxypiperidin-1-yl)pyrimido[5,4-d]pyrimidine-2,6-diamine] was run?
The IC50 was under 0.1 µM.

How did the IC50 turn out when COCCN(CCOC)c1nc(N2CCC(OC)CC2)c2nc(N(CCOC)CCOC)nc(NCc3cccc(OC)c3)c2n1 [Compound 48, N4-(3-methoxybenzyl)-N2,N2,N6,N6-tetrakis(2-methoxyethyl)-8-(4-methoxypiperidin-1-yl)pyrimido[5,4-d]pyrimidine-2,4,6-triamine] was run?
Its IC50 is under 0.1 µM.

Which IC50 does the source give for COCCN(CCOC)c1nc(N2CCC(OC)CC2)c2nc(N(CCOC)CCOC)nc(NCc3cc(C)no3)c2n1 [Compound 162, N2,N2,N6,N6-tetrakis(2-methoxyethyl)-8-(4-methoxypiperidin-1-yl)-N4-((3-methylisoxazol-5-yl)methyl)pyrimido[5,4-d]pyrimidine-2,4,6-triamine] here?
The IC50 was 0.5 to 1 µM.

Which IC50 does the source give for COCCN(CCOC)c1nc(N2C[C@@H](C)O[C@@H](C)C2)c2nc(N(CCOC)CCOC)nc(N3CCC(OC)CC3)c2n1 [Compound 110, 4-((2R,6S)-2,6-dimethylmorpholino)-N2,N2,N6,N6-tetrakis(2-methoxyethyl)-8-(4-methoxypiperidin-1-yl)pyrimido[5,4-d]pyrimidine-2,6-diamine] here?
The IC50 was under 0.1 µM.

How did the IC50 turn out when COCCN(CCOC)c1nc(N2CCc3oncc3C2)c2nc(N(CCOC)CCOC)nc(N3CCN(C)C(=O)C3)c2n1 [Compound 261, 4-(2,6-bis(bis(2-methoxyethyl)amino)-8-(6,7-dihydroisoxazolo[4,5-c]pyridin-5(4H)-yl)pyrimido[5,4-d]pyrimidin-4-yl)-1-methylpiperazin-2-one] was run?
The IC50 was under 0.1 µM.

With COCCN(CCOC)c1nc(N2CCC(OC)CC2)c2nc(N(CCOC)CCOC)nc(NCc3ccc(Cl)c(C#N)c3)c2n1 [Compound 150, 5-(((2,6-bis(bis(2-methoxyethyl)amino)-8-(4-methoxypiperidin-1-yl)pyrimido[5,4-d]pyrimidin-4-yl)amino)methyl)-2-chlorobenzonitrile] as the compound, how does the IC50 read?
Its IC50 is under 0.1 µM.

How did the IC50 turn out when COCCN(CCOC)c1nc(N2CCN(c3ncn(C)n3)CC2)c2nc(N(CCOC)CCOC)nc(N(C)Cc3cccc(S(N)(=O)=O)c3)c2n1 [Compound 248, 3-(((2,6-bis(bis(2-methoxyethyl)amino)-8-(4-(1-methyl-1H-1,2,4-triazol-3-yl)piperazin-1-yl)pyrimido[5,4-d]pyrimidin-4-yl)(methyl)amino)methyl)benzenesulfonamide] was run?
The IC50 was 0.1 to 0.5 µM.

With COCCN(CCO)c1nc(N2CCN(C)C(=O)C2)c2nc(N(CCO)CCOC)nc(N3CCC(OC)CC3)c2n1 [Compound 306, 4-(2,6-bis((2-hydroxyethyl)(2-methoxyethyl)amino)-8-(4-methoxypiperidin-1-yl)pyrimido[5,4-d]pyrimidin-4-yl)-1-methylpiperazin-2-one] as the compound, how does the IC50 read?
The IC50 was 0.1 to 0.5 µM.

Which IC50 does the source give for COCCN(CCOC)c1nc(N2CCCC(OC)C2)c2nc(N(CCOC)CCOC)nc(N3CCC(OC)CC3)c2n1 (centres unmarked) [Compound 96, N2,N2,N6,N6-tetrakis(2-methoxyethyl)-4-(3-methoxypiperidin-1-yl)-8-(4-methoxypiperidin-1-yl)pyrimido[5,4-d]pyrimidine-2,6-diamine] here?
Its IC50 is 0.1 to 0.5 µM.

Which IC50 does the source give for COCCN(Cc1cc(F)c(C(=O)O)c(F)c1)c1nc(N2CCN(C)C(=O)C2)c2nc(N(CCOC)CCOC)nc(N3CCC(OC)CC3)c2n1 [Compound 340, 4-(((6-(bis(2-methoxyethyl)amino)-8-(4-methoxypiperidin-1-yl)-4-(4-methyl-3-oxopiperazin-1-yl)pyrimido[5,4-d]pyrimidin-2-yl)(2-methoxyethyl)amino)methyl)-2,6-difluorobenzoic acid] here?
The IC50 was under 0.1 µM.
